Results published in patent US20250161309A1, “TOPICAL COMPOSITIONS AND USES THEROF” (TOPADUR PHARMA AG, priority 2022, published 2025).

Assays:
[1] = system: C57BL/6 mouse model of alopecia; assay: Topical administration and hair growth in C57BL/6 mouse model of alopecia (telogen phase, clipped dorsal skin); format: in vivo; conditions: female mice
Text: Dorsal hair of C57BL/6 mouse is known to have a time synchronized hair cycle. From about 18-21 days of age (2-3 weeks old) and 47-95 days of age (6-14 weeks old), the dorsal hair are in the telogen/quiescent phase (visually pink skin) [Lee B H, Lee J S, Kim Y C. Hair growth-promoting effects of lavender oil in C57BL/6 mice. Toxicol Res. (2016) 32(2):103-108; Choi H I, Kang B M, Jang J, Hwang S T, Kwon O. Novel effect of sildenafil on hair growth. Biochem Biophys Res Commun. (2018) 505(3):685-691]. C57BL/6 mouse therefore is a well-established model for studying hair growth promotion.
Male and female C57BL/6 mice of 6 to 9 weeks of age in stable telogen phase of hair growth cycle were used (obtained from Vivo Bio Tech Ltd, Telangana, India).
50 μL of a clear solution of respective 0.02%, 0.002% and 0.0002% (w/v) concentrations of Cpd 1 in the corresponding vehicle (PEG-400:EtOH/7:3) (PEG-400: Central Drug House Ltd. Dehli, India; Ethanol: Changshu Hongsheng fine chemicals Co. Ltd. China) and the positive control, 2% solution (female) or 5% (male) (w/v) Minoxidil (Chemieliva, China) in the corresponding vehicle (PEG-400:EtOH/7:3) were topically applied to the clipped area on the dorsal back of the mice. The solutions covered a circular area of approximately 2 cm^2. The treatment regimen was twice daily application for 5 days/week for total of 4 weeks.
The selected animals on day 1 weighted on average 20.05 g±0.17 ranging from 19.8 to 20.2 g. The hair on the dorsal back (approx. 4×4 cm^2) of these animals were clipped without touching the skin of the animal, using an electric clipper, on day 0 before the treatment with Cpd 1 and the hair was collected. The treatment followed by visual analysis for anagen onset, skin color change and appearance of any hair growth were monitored. After completion of the experiment, the dorsal skin of all the animals was removed and visual melanogenesis was reported. The skin sections were then preserved in 10% formalin solution for further histopathology analysis.
Animals were observed during 30 days and the hair growth score was recorded on daily basis. The criteria for scoring of hair growth is as follows: no hair growth, pink skin—score 0; skin colour changes from pink to grey/light grey without visible hair growth—score 0.5 onset of anagen (skin colour changes from grey/light grey to dark grey/black without visible hair growth)—score 1; sparse hair growth—score 1.5; diffuse short hair growth—score 2, moderate hair growth—score 2.5 and dense, normal coat hair—score 3 (Lee B H, Lee J S, Kim Y C. Hair growth-promoting effects of lavender oil in C57BL/6 mice. Toxicol Res. (2016) 32(2):103-108).
Photographs of the animals were captured before the initiation and during the course of the study.
(§1) After completion of the experiments all animals were sacrificed by euthanasia (Choi H I, Kang B M, Jang J, Hwang S T, Kwon O. Novel effect of sildenafil on hair growth. Biochem Biophys Res Commun. (2018) 505(3):685-691). The dorsal skin of each animal was then removed by peeling. The peeled skin was spread and checked visually for the induction of melanogenesis indicated by visual blackening on the reverse side of the skin. The skin samples were evenly spread on a pre-labelled glass slide and kept in 10% formalin until further use. Later, the skin samples were embedded in paraffin and sectioned at 5 microns using a microtome and the corresponding slides per animal were prepared. The slides obtained were used for Haematoxylin & Eosin (H&E) staining and in the transverse and longitudinal sections' photomicrographs data, the total number of follicles in the dermis and the sub cutis were determined for each animal. The skin thickness was measured using Image J 1.44 software.
The statistical analyses were performed using GraphPad Prism 9.0.0 software. Statistical significance was determined by One-way or Two-Way ANOVA followed by Tukey's multiple comparison test. […]

[2] = system: C57BL/6 mouse model for chemotherapy-induced alopecia (CIA); assay: Preventive C57BL/6 mouse model of cyclophosphamide (chemotherapy)-induced alopecia (CIA), topical administration; format: in vivo; conditions: female mice, 2% Minoxidil
Protocol: Female C57BL/6 mice (Vivo Bio Tech Ltd, Telangana, India) of 6 to 9 weeks of age in stable telogen phase of hair growth cycle were used.
100 μL of a clear solution of respective 0.0004%, 0.002% (w/v) concentrations of Cpd 1 in the corresponding vehicle (PEG-400:EtOH/7:3) (PEG-400: Central Drug House Ltd. Dehli, India; Ethanol: Changshu Hongsheng fine chemicals Co. Ltd. China) and the positive control, 2% solution (w/v) Minoxidil (Chemieliva, China) in the corresponding vehicle (PEG-400:EtOH/7:3) were topically applied to the depilated area on the dorsal back of female mice. The solutions covered a circular area of approximately 4 cm^2. The treatment regimen was twice daily for 7 days before Cyclophosphamide injection and afterwards for 3 weeks.
Animals (female) on day 1 weighted on average 18.8 g+0.2 ranging from 18.5 to 19.3 g. The animals were exposed by gentle clipping of hair from the dorsal back using an electric clipper. The following day, animals with clear skin were depilated using a depilatory cream. To evaluate the preventive potential of Cpd 1 in the chemotherapy-induced alopecia mouse model, animals were treated topically with 0.0004% and 0.002% Cpd 1, 2% Minoxidil and vehicle from day 1 onwards on the dorsal depilated skin with twice daily application regimen until day 10, when all the animals have attained the anagen stage. On day 11 after depilation, no application of the Cpd 1 or vehicle was done. This was considered a wash-out period. On day 12 after depilation, the animals were given intraperitoneal injection of cyclophosphamide (CYP-HiMedia Laboratories, Mumbai, India) at the dose of 150 mg/kg body weight. One day of wash-out period was given to the animals before restarting the treatment with Cpd 1. The treatment regimen was reinitiated with 0.0004% and 0.002% Cpd 1, 2% Minoxidil and vehicle in the respective groups for further 3 weeks. All the animals were observed from day 1 (experiment start) till day 30 (experiment termination and animal sacrifice day) and the hair growth score was recorded on a daily basis. The criteria for scoring of hair growth is as follows: no hair growth, pink skin—score 0; skin colour changes from pink to grey/light grey without visible hair growth—score 0.5; onset of anagen (skin colour changes from grey/light grey to dark grey/black without visible hair growth)—score 1; sparse hair growth—score 1.5; diffuse short hair growth—score 2, moderate hair growth—score 2.5 and dense, normal coat hair—score 3 (Lee B H, Lee J S, Kim Y C. Hair growth-promoting effects of lavender oil in C57BL/6 mice. Toxicol Res. (2016) 32(2):103-108). Photographs of the animals were captured before the initiation and during the course of the study. […]
as §1, with “software. […]” for “software.”

## CCCOc1ccc(S(=O)(=O)N2CCN(CCO[N+](=O)[O-])CC2)cc1-c1nc2c(CCC)cn(CC)c2c(=O)[nH]1 [Cpd 2, 2-(4-((3-(5-ethyl-4-oxo-7-propyl-4,5-dihydro-3H-pyrrolo[3,2-d]pyrimidin-2-yl)-4-propoxyphenyl)sulfonyl)piperazin-1-yl)ethyl nitrate]
[1]
  number of follicles in the subcutis layer of the skin and total follicle counts compared to control group: considerable higher number
[1]; 0.002% (w/v), end of study
  animals with visual melanogenesis in peeled skin: 1/5
[1]; 0.02% (w/v)
  skin thickness compared to vehicle and 2% Minoxidil groups: increased
[1]; 0.02% (w/v), end of study
  animals with visual melanogenesis in peeled skin: 1/5
[1]; Cpd 2-treated groups
  anagen hair follicles (histology, H&E) compared to control groups: more
[1]; at day 30
  area of black skin compared to control groups: larger
[1]; topical twice daily, 5 days/week, 4 weeks, compared to vehicle group
  adverse effects in relation to general health or body weight: No adverse effects
[1]; treated group 2 (Table 2: 0.002% (w/v)), after hair growth induction
  day of skin colour change from pink to light grey (transition from telogen to anagen phase): 10 day
[1]; treated group 2 (Table 2: 0.002% (w/v)), at day 30, followed by low dose groups and Minoxidil group
  hair growth score among treatment groups: maximal
[1]; treated group 2 (Table 2: 0.002% (w/v)), at days 25, 29 and 30
  hair growth (score) compared to 2% Minoxidil: significant increase
[1]; treated group 2 (Table 2: 0.002% (w/v), Composition A5), from day 23 on
  hair growth (score) compared to vehicle: significantly higher
[1]; treated group 3 (Table 2: 0.02% (w/v), Composition A6), at day 29 and 30
  hair growth compared to vehicle group: significantly higher

## Nc1cc(N2CCCCC2)nc(N)[n+]1[O-] [Minoxidil, 2,4-diamino-6-piperidinopyrimidine-3-oxide, reference compound]
[1]; positive control 2% (w/v) Minoxidil, end of study
  visual melanogenesis in peeled skin: No visual melanogenesis
[2]
  animals with complete hair growth (hair growth score of 3): 3/7
  animals with moderate hair growth (hair growth score of 2-2.5): 4/7
  attainment of hair growth compared to vehicle: faster attainment
  depth and development of dermal papilla and long hair shaft of hair follicles observed (longitudinal skin sections): majority of the animals
  thickness of the skin compared to vehicle group: slightly increase
[2]; end of study
  mice with visual melanogenesis in peeled skin: 7/7
[2]; vehicle 0.4
  Ki-67 score (positive cells near the follicular region, semi-quantitative grading): 1.1
[2]; vehicle group 0.8
  CD-31 mean score (perifollicular angiogenesis, semi-quantitative grading): 1.4
